{
  "source": "paper PMC11811207",
  "about": "“Macrocycle-based PROTACs selectively degrade cyclophilin A and inhibit HIV-1 and HCV” (Nature Communications, 2025)",
  "key": {"[1]": {"test_system": "CypA and CypB", "test": "CypA and CypB immunoblot in Jurkat cells treated with CsA-based PROTAC JW4-10", "format": "cell-based, human", "procedure": "(§1) U87 cells (5 × 10^4 cells/well, 12 well plate), Huh7 cells (1 × 10^5 cells/well, 12 well plate), Calu-3 cells (1 × 10^5 cells/well, 12 well plate), Jurkat cells (5 × 10^5 cells/mL, 24 well plate, 1 mL/well), THP-1 Dual cells (4 × 10^5 cells/mL, 24 well plate, 1 mL/well), primary MDMs (confluent well), or primary resting/activated T cells (1-2 × 10^6 cells/well, 96 well plate) were treated with 5 μM Cyp-PROTAC or DMSO for 48 h. […] MLN4924 was washed out before the addition of Cyp-PROTAC, but VHLi was kept in for the duration of the experiment. In competitor experiments, Jurkat cells were treated with 10 μM TWH106 and 1 μM Cyp-PROTAC simultaneously for 48 h. For the time course experiments, Jurkat cells were treated with 5 μM Cyp inhibitor or DMSO and cells were harvested at indicated time points. For the titration experiments, Jurkat cells were treated with 0.01 – 10 μM Cyp inhibitor or DMSO for 24 h or 48 h. Before harvesting for immunoblot, cells were washed twice in PBS.\n(§2) Cells were lysed in RIPA buffer (50 mM Tris pH 8.0, 150 mM sodium chloride, 1.0% Triton X-100, 0.5% sodium deoxycholate, 0.1% sodium dodecyl sulphate (SDS)) supplemented with protease inhibitors (cOmplete mini, EDTA-free, Roche) and phosphatase inhibitors (PhosSTOP, Roche). After 10 min incubation on ice, samples were centrifuged (16000 × g, 10 min, 4 °C), and the supernatant protein content was determined using Pierce^TM BCA Protein Assay Kit (Thermo Fisher Scientific). Samples were combined with 4x Laemmli sample buffer (200 mM Tris pH 6.8, 40% glycerol, 8% SDS, 0.4% Bromophenol Blue) and the appropriate amount of RIPA buffer to normalise protein concentrations of samples and boiled for 5 min. Proteins were separated by SDS-PAGE on 15% polyacrylamide gels and transferred onto nitrocellulose membrane using the Trans-Blot Turbo Transfer System (Bio-Rad). […] Densitometry analysis was performed using ImageJ (v2.14.0), and normalised protein densities were calculated by normalisation to β-actin loading control and untreated control as stated. […]"}, "[2]": {"target": "T1, CypA (Homo sapiens, UniProt P62937)", "T1 construct": "endogenous in cells; host or cells: Jurkat; also Calu-3, THP-1, MDMs, U87, Huh7, primary human CD4+ T cells", "T1 sequence (P62937 whole entry)": "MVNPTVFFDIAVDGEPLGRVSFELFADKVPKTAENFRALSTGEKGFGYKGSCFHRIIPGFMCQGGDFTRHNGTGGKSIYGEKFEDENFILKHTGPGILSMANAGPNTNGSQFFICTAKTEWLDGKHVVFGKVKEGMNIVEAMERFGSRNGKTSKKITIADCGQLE", "test": "CypA degradation in Jurkat cells by immunoblot", "format": "cell-based", "conditions": "for effect on CypA levels in the absence of PROTAC: Jurkat, MLN4924 1 μM 6 h or VHLi 50 μM", "procedure": "as §1\nas §2, with “(Bio-Rad). Blots were blocked in 5% milk in PBS-Tween for 1 h and incubated with primary antibodies in 5% milk in PBS-Tween overnight. After washing in PBS-Tween, blots were incubated with IRDye® fluorescent secondary antibodies (LI-COR) for 1 h, washed in PBS-Tween, then PBS, and visualised on an LI-COR Odyssey imaging system. Uncropped and unprocessed scans are provided in the Source Data file (main figures) and in the Figshare research data repository 10.6084/m9.figshare.c.7387381 (supplementary figures).” for “(Bio-Rad).”\nDC50s and Dmaxs were calculated from sigmoidal (4-parameter logistic) fits, mean (n = 2 independent experiments)."}, "[3]": {"target": "full-length human CypA (Homo sapiens, UniProt P62937)", "sequence (P62937 whole entry)": "as above", "test": "SPR against CypA (immobilised on CM5 chip)"}, "[4]": {"test_system": "HIV-1 NL4.3", "test": "Wild-type HIV-1 spreading infection in activated primary CD4+ T cells", "method": "NL4.3 stocks were produced by transfection of HEK293T cells in 150 cm^2 flasks with 9 μg pNL4.3 using 60 μL Fugene 6 (E2692, Promega) according to the manufacturer’s instructions. Supernatants were harvested at 48 and 72 h, filtered, DNase treated, purified and concentrated by ultracentrifugation through a 20% sucrose cushion and resuspended in RPMI with 10% FBS. Viral titres were determined by measuring reverse transcriptase (RT) activity in mU by SG-PERT assay[86].\nTo infect activated primary CD4+ T cells with HIV-1, cells were mixed and incubated with HIV-1 NL4.3 virus (2000 mU RT/10^6 cells) for 4 h at 37 °C. […] After exposure to the virus, T cells were washed twice in PBS by centrifugation (400 × g, 5 min) and resuspended in fresh culture medium. […]\nFor primary T cell infection experiments, cells were washed in PBS and stained with fixable Zombie R685 Live/Dead dye (423119, BioLegend, 1:500) for 5 min at 37 °C. […] Intracellular CypA was detected by incubating permeabilised cells with CypA antibody (clone 1F4-1B5, ab58144, Abcam, 1:1000) for 30 min, followed by washing (PBS) and 15 min incubation with secondary anti-mouse AlexaFluor488- or AlexaFluor647-tagged antibody. After washing with PBS (700 × g, 5 min, 4 °C) to remove excess antibodies, data were acquired on a NovoSampler Pro (Agilent) and analysed using FlowJo v10.10 (Tree Star) or NovoExpress 1.5.0 (Agilent)."}, "[5]": {"test_system": "HCV JFH-1 replicon", "test": "HCV JFH-1 subgenomic replicon (luciferase) in Huh7 cells", "format": "cell-based", "conditions": "Huh7, 5 μM pretreatment, washed out, not readded", "procedure": "HCV JFH-1 subgenomic replicon (SGR) (pFKI389Luc/NS3-3’_dg_JFH, previously described)[87] plasmid DNA (10 μg) was linearised by digestion with MluI, and purified linearised DNA (1 μg) was used as a template for in vitro transcription, according to the MEGAscript T7 Transcription Kit instructions (Invitrogen). RNA was resuspended in nuclease-free water at a concentration of 1 μg/μL, aliquoted, and stored at − 80 °C.\nHCV SGR RNA (5 μg or 1 μg) was electroporated into 2 × 10^6 or 2 × 10^5 Huh7 cells, respectively, using a Neon transfection system (Thermo Scientific). Single-cell suspensions were washed with PBS and resuspended in 100 μL or 10 μL of Buffer R, respectively. Resuspended cells were mixed with RNA and loaded into a Neon Tip and electroporated using the Neon Transfection system (1400 V, 20 ms, 1 pulse) and resuspended in 12 mL or 1.2 mL of media, respectively, prior to seeding in 96 well plates at a density of ~2 × 10^4 cells/well. […] Experiments were carried out in triplicate. Firefly luciferase activity was measured on a Glomax (Promega) at 4 h post electroporation (hpe) and 48 hpe using the SteadyGlo reagent (Promega) according to the manufacturer’s instructions. Data at 48 hpe were normalised to the input luciferase signal at 4 hpe."}, "[6]": {"test_system": "THP-1 cell proteome", "test": "Mass spectrometry-based proteomics in THP-1 cells", "format": "cell-based, human", "conditions": "THP-1, 5 μM, 72 h", "procedure": "THP-1 Dual cells were treated with 5 μM Cyp inhibitor or DMSO for 72 h. After washing with PBS, cells were lysed (5% SDS, 5 mM tris(2-carboxyethyl)phosphine (TCEP), 10 mM chloroacetamide (CAA), 100 mM Tris, 1% Triton X-100, pH 8.5) and boiled for 10 min followed by sonication in a water bath for 10 min. Protein concentration was estimated by BCA assay (Thermo Fisher Scientific). Protein digestion was automated on a KingFisher APEX robot (Thermo Fisher Scientific) in a 96-well format using a protocol from Koenig et al.[83] with minor modifications. […]\nPeptides were then dissolved in 0.5% TFA before liquid chromatography–tandem mass spectrometry (MS/MS) analysis. The mixture of tryptic peptides was analysed using an Ultimate3000 high-performance liquid chromatography system coupled online to an Eclipse mass spectrometer (Thermo Fisher Scientific). […]\nAll raw files were analysed by DIA-NN v1.8.1[84], searching against library generated automatically using Human reference proteome (UniProt) and standard settings: peptides from 7 to 30 amino acids, max number of missed cleavages of 1, oxidation (M) and protein-acetylation as only variable modifications. The data files generated by DIA-NN were analysed using Perseus version 2.0.10.0[85]. […]"}, "[7]": {"test_system": "U87 cells", "test": "MTT viability assay, U87 cells", "format": "cell-based", "conditions": "U87, 10 μM", "procedure": "(§3) U87 cells (1 × 10^4 cells/well, 48 well plate) or Jurkat cells (5 × 10^3 cells/well, 96 well U-bottom plate) were treated with serial dilutions of Cyp inhibitors as indicated. After 48 h, the media was aspirated and replaced with fresh Cyp inhibitor dilutions and the lentiviral vector (MOI: 0.25) for a further 48 h. Experiments were carried out in triplicate.\n(§4) 3-(4,5-Dimethyl-2-thiazolyl)-2,5-diphenyl-2H-tetrazolium bromide (MTT) assay was performed on U87 cells, Jurkat cells or Huh7 cells treated with Cyp inhibitors as indicated. At the time point indicated, 10% v/v MTT (stock at 5 mg/mL in PBS) (475989, Sigma Aldrich) was added, and cells were incubated for 1 - 2 h at 37 °C. 100 μL solubilisation solution (10% SDS and 0.01 M HCl) was added, and after overnight incubation at 37 °C, absorbance was measured at 570 nm. Experiments were carried out in triplicate."}, "[8]": {"test_system": "Jurkat cells", "test": "MTT viability assay, Jurkat cells", "format": "cell-based, human", "conditions": "highest concentrations tested", "procedure": "as §3, §4"}, "[9]": {"target": "T2, CypB (Homo sapiens, UniProt P23284)", "T2 construct": "endogenous in cells; host or cells: Jurkat", "T2 sequence (P23284 34-216)": "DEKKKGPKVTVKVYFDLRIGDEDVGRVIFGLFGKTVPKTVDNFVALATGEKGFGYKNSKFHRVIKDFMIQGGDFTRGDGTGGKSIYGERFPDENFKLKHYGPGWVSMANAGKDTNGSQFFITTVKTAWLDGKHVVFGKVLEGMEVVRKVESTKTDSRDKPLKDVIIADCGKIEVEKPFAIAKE", "test": "CypB levels in Jurkat cells by immunoblot", "format": "cell-based", "procedure": "as §1, with “For the time course experiments, Jurkat cells were treated with 5 μM Cyp inhibitor or DMSO and cells were harvested at indicated time points. For the titration experiments, Jurkat cells were treated with 0.01 – 10 μM Cyp inhibitor or DMSO for 24 h or 48 h. Before harvesting for immunoblot, cells were washed twice in PBS.” left out\nCells were lysed in RIPA buffer (50 mM Tris pH 8.0, 150 mM sodium chloride, 1.0% Triton X-100, 0.5% sodium deoxycholate, 0.1% sodium dodecyl sulphate (SDS)) supplemented with protease inhibitors (cOmplete mini, EDTA-free, Roche) and phosphatase inhibitors (PhosSTOP, Roche). After 10 min incubation on ice, samples were centrifuged (16000 × g, 10 min, 4 °C), and the supernatant protein content was determined using Pierce^TM BCA Protein Assay Kit (Thermo Fisher Scientific). […] Densitometry analysis was performed using ImageJ (v2.14.0), and normalised protein densities were calculated by normalisation to β-actin loading control and untreated control as stated. […]"}, "[10]": {"target": "N-truncated CypB (Homo sapiens, UniProt P23284)", "sequence (P23284 34-212)": "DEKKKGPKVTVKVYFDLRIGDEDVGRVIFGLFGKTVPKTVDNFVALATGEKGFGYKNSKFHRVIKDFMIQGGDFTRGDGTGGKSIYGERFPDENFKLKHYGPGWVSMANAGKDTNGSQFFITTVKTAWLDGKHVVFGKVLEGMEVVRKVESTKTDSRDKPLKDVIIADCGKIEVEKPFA", "test": "SPR against N-truncated CypB (immobilised on CM5 chip)"}},
  "data": [
    {"smiles": "CC[C@@H]1NC(=O)[C@H]([C@H](O)[C@H](C)C/C=C/CCCCC(=O)N[C@H](C(=O)N2C[C@H](O)C[C@H]2C(=O)N[C@@H](C)c2ccc(-c3scnc3C)cc2)C(C)(C)C)N(C)C(=O)[C@H](C(C)C)N(C)C(=O)[C@H](CC(C)C)N(C)C(=O)[C@H](CC(C)C)N(C)C(=O)[C@@H](C)NC(=O)[C@H](C)NC(=O)[C@H](CC(C)C)N(C)C(=O)[C@H](C(C)C)NC(=O)[C@H](CC(C)C)N(C)C(=O)CN(C)C1=O", "note": "[JW4-10]", "values": [
      {"measurement": "degradation of CypA and CypB", "setting": "[1]; 5 μM, 48 h", "value": "degraded both CypA and CypB"},
      {"measurement": "rescue by excess VHL inhibitor VH298 pretreatment", "setting": "[1]; 50 µM VHLi 2 h before 5 µM PROTAC", "value": "rescued CypA, but not CypB"},
      {"measurement": "rescue by MLN4924 pretreatment", "setting": "[1]; MLN4924 1 μM 6 h before 5 μM PROTAC", "value": "fully rescued CypA, but not CypB"}
    ]},
    {"smiles": "NS(=O)(=O)OC[C@@H]1C[C@@H](n2ccc3c(N[C@H]4CCc5ccccc54)ncnc32)C[C@@H]1O", "note": "[MLN4924, reference compound]", "values": [
      {"measurement": "effect on CypA levels in the absence of PROTAC", "setting": "[2]", "value": "no impact on CypA levels"}
    ]},
    {"smiles": "C[C@@H]1NC(=O)[C@H](Cc2ccc([N+](=O)[O-])cc2)NC(=O)C/C=C/c2ccc3ccc(nc3c2)[C@@H](C)OC(=O)[C@@H]2CCCN(N2)C1=O", "note": "[TWH106]", "values": [
      {"measurement": "Kd", "setting": "[3]; CypA KD, SPR equilibrium analysis, full-length CypA, mean of two independent experiments ± SD", "value": "0.053 ± 0.005", "unit": "µM"},
      {"measurement": "Kd", "setting": "[3]; CypA dissociation constant (KD) from sigmoid fit, representative experiment, one of two independent experiments, Supplementary Fig. 2", "value": 0.048, "unit": "µM"},
      {"measurement": "antiviral activity, pretreatment only", "setting": "[4]; 5 μM 48 h pretreatment, not readded after infection", "value": "abrogated"},
      {"measurement": "antiviral activity (Gag+ cells, viral particles in supernatant)", "setting": "[4]; continuous treatment 1 μM or 5 μM", "value": "antiviral"},
      {"measurement": "antiviral activity against HCV replicon, pretreatment only", "setting": "[5]", "value": "abrogated"},
      {"measurement": "effect on CypA protein levels, time course", "setting": "[2]; Jurkat cells, 5 μM, up to 6 days", "value": "did not reduce CypA levels except a small decrease after 6 days"},
      {"measurement": "effect on CypA levels, dose response", "setting": "[2]; Jurkat cells, 0.01 – 10 μM, 24 h and 48 h", "value": "mild CypA loss only at 10 µM and after 24 hours"},
      {"measurement": "effect on CypA in proteomics", "setting": "[6]", "value": "did not affect CypA levels"},
      {"measurement": "cell viability (MTT)", "setting": "[7]", "value": "slightly toxic"},
      {"measurement": "cell viability (MTT)", "setting": "[8]", "value": "toxic"},
      {"measurement": "effect on CypB levels, time course", "setting": "[9]; 5 μM, 6 days", "value": "most effectively reduced"},
      {"measurement": "effect on CypB levels, dose response", "setting": "[9]; 0.01–10 μM, 48 h", "value": "dose-dependent decrease in CypB"},
      {"measurement": "Kd", "setting": "[10]; CypB KD, SPR equilibrium analysis, N-truncated CypB, mean of two independent experiments ± SD", "value": "0.139 ± 0.024", "unit": "µM"},
      {"measurement": "Kd", "setting": "[10]; CypB dissociation constant (KD) from sigmoid fit, representative experiment, one of two independent experiments, Supplementary Fig. 3", "value": 0.163, "unit": "µM"},
      {"measurement": "lower affinity for N-truncated CypB compared to CypA", "setting": "[10]; SPR KD CypB vs CypA", "value": "2-3 fold"}
    ]},
    {"smiles": "Cc1ncsc1-c1ccc(CNC(=O)[C@@H]2C[C@@H](O)CN2C(=O)[C@@H](NC(=O)C2(C#N)CC2)C(C)(C)C)cc1", "note": "[VH298, reference compound]", "values": [
      {"measurement": "effect on CypA levels in the absence of PROTAC", "setting": "[2]", "value": "did not impact CypA levels"}
    ]}
  ]
}
